Consider 19 compounds from patent US10745382B2 (BRISTOL-MYERS SQUIBB COMPANY, priority 2015, dated 2020).

A word on the IC50: it is the midpoint of a concentration-inhibition curve.

Structures are written as SMILES.

T1 sequence (Q9NZQ7 with tags, fused parts or gaps): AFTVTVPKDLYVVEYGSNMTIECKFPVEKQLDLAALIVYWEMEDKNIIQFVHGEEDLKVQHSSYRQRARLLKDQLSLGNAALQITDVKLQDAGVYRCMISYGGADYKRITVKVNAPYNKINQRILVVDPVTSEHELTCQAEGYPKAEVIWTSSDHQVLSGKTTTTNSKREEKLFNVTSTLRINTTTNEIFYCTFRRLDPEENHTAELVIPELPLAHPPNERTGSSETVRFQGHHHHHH

One test has as its target T1, PD-1/PD-L1 (Homo sapiens, UniProt Q9NZQ7).
T1 construct: made in house; host or cells: HEK293T
The experiment in a line: PD-1/PD-L1 Homogenous Time-Resolved Fluorescence (HTRF) binding assay. As to conditions: PD-L1-His 10 nM, PD-1-Ig 20 nM; numeric IC50; read-out: Range or IC50. Summed up: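 Binding was measured by HTRF in dPBS with 0.1% BSA and 0.05% Tween-20. Detection used europium cryptate anti-Ig (1 nM final) and APC anti-His (20 nM final) added over the binding reaction.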
For orientation: TR-FRET usually uses a lanthanide donor and a delayed reading to cut background.
With `CCOC(=O)C1(CO)CCN(CCCOc2cccc(-c3cccc(COc4cc(OCc5cncc(C#N)c5)c(CN5CCC(CO)(C(=O)OCC)C5)cc4Cl)c3C)c2Cl)C1` (stereo not shown) [Example 1102, ethyl 1-(3-((2-chloro-3′-((2-chloro-5-((5-cyanopyridin-3-yl)methoxy)-4-((3-(ethoxycarbonyl)-3-(hydroxymethyl)pyrrolidin-1-yl)methyl)phenoxy)methyl)-2′-methyl-[1,1′-biphenyl]-3-yl)oxy)propyl)-3-(hydroxymethyl)pyrrolidine-3-carboxylate], the IC50 turned out to be 2.8 nM. Take `Cc1c(COc2cc(OCc3cncc(C#N)c3)c(CN3CCCC[C@H]3C(=O)O)cc2Cl)cccc1-c1cccc(OCCCN2CCC(CO)(C(=O)O)C2)c1Cl` (stereo partly drawn) [Example 1106, (2S)-1-(4-((3′-(3-(3-carboxy-3-(hydroxymethyl)pyrrolidin-1-yl)propoxy)-2′-chloro-2-methyl-[1,1′-biphenyl]-3-yl)methoxy)-5-chloro-2-((5-cyanopyridin-3-yl)methoxy)benzyl)piperidine-2-carboxylic Acid]: the IC50 was 1 nM.

Still in this test, the particulars now being: PD-L1-His 10 nM, PD-1-Ig 20 nM; value given as range class; read-out: Range or IC50.
On to `Cc1c(COc2cc(OCc3cncc(C#N)c3)c(CN3CCCC[C@H]3C(=O)O)cc2Cl)cccc1-c1cccc(OC/C=C/CN2CC[C@@H](O)C2)c1` [Example 1087, (S)-1-(5-chloro-2-((5-cyanopyridin-3-yl)methoxy)-4-((3′-(((E)-4-((R)-3-hydroxypyrrolidin-1-yl)but-2-en-1-yl)oxy)-2-methyl-[1,1′-biphenyl]-3-yl)methoxy)benzyl)piperidine-2-carboxylic Acid], for which the IC50 fell in the range of 10 to 100 nM.

Turning to `Cc1c(COc2cc(OCc3cncc(C#N)c3)c(CN3CCCC[C@H]3C(=O)O)cc2Cl)cccc1-c1cccc(OCCCN2CC[C@@](O)(c3ccc(Cl)cc3)[C@](C)(O)C2)c1Cl` [Example 1088, (S)-1-(5-chloro-4-((2′-chloro-3′-(3-((3R,4R)-4-(4-chlorophenyl)-3,4-dihydroxy-3-methylpiperidin-1-yl)propoxy)-2-methyl-[1,1′-biphenyl]-3-yl)methoxy)-2-((5-cyanopyridin-3-yl)methoxy)benzyl)piperidine-2-carboxylic Acid], the IC50 fell in the range of 0.21 to 10 nM. Take `Cc1c(COc2cc(OCc3cncc(C#N)c3)c(CN[C@H](CO)C(=O)O)cc2Cl)cccc1-c1cccc(OCCCN2CC[C@@](O)(c3ccc(Cl)cc3)[C@](C)(O)C2)c1Cl` [Example 1089, (5-chloro-4-((2′-chloro-3′-(3-((3R,4R)-4-(4-chlorophenyl)-3,4-dihydroxy-3-methylpiperidin-1-yl)propoxy)-2-methyl-[1,1′-biphenyl]-3-yl)methoxy)-2-((5-cyanopyridin-3-yl)methoxy)benzyl)-D-serine]: the IC50 was in the range of 0.21 to 10 nM. As to `Cc1c(COc2cc(OCc3cncc(S(C)(=O)=O)c3)c(CN3CCCC[C@H]3C(=O)O)cc2Cl)cccc1-c1cccc(OCCCN2CC[C@H](O)C2)c1C` [Example 1090, (S)-1-(5-chloro-4-((3′-(3-((S)-3-hydroxypyrrolidin-1-yl)propoxy)-2,2′-dimethyl-[1,1′-biphenyl]-3-yl)methoxy)-2-((5-(methylsulfonyl)pyridin-3-yl)methoxy)benzyl)piperidine-2-carboxylic Acid], the IC50 lay within 0.21 to 10 nM. Still for that read-out and setting: as for `COC(=O)C1(O)CCN(CCCOc2cccc(-c3cccc(COc4cc(OCc5cncc(C#N)c5)c(CN5CCC(O)(C(=O)OC)CC5)cc4Cl)c3C)c2C)CC1` [Example 1091, methyl 1-(5-chloro-2-((5-cyanopyridin-3-yl)methoxy)-4-((3′-(3-(4-hydroxy-4-(methoxycarbonyl)piperidin-1-yl)propoxy)-2,2′-dimethyl-[1,1′-biphenyl]-3-yl)methoxy)benzyl)-4-hydroxypiperidine-4-carboxylate], the figure is 0.21 to 10 nM; as for `Cc1cc(OCCCCN2CC[C@@H](O)C2)ccc1-c1cccc(COc2cc(OCc3cncc(C#N)c3)c(CN[C@H](CO)C(=O)O)cc2Cl)c1C` [Example 1092, (5-chloro-2-((5-cyanopyridin-3-yl)methoxy)-4-((4′-(4-((R)-3-hydroxypyrrolidin-1-yl)butoxy)-2,2′-dimethyl-[1,1′-biphenyl]-3-yl)methoxy)benzyl)-D-serine], 0.21 to 10 nM. Consider `Cc1cc(OCCCCN2CC[C@@H](O)C2)ccc1-c1cccc(COc2cc(OCc3cncc(C#N)c3)c(CN3CCCC[C@H]3C(=O)O)cc2Cl)c1C` [Example 1093, (S)-1-(5-chloro-2-((5-cyanopyridin-3-yl)methoxy)-4-((4′-(4-((R)-3-hydroxypyrrolidin-1-yl)butoxy)-2,2′-dimethyl-[1,1′-biphenyl]-3-yl)methoxy)benzyl)piperidine-2-carboxylic Acid], for which the IC50 fell in the range of 0.21 to 10 nM.

For `Cc1c(COc2cc(OCc3cncc(C(N)=O)c3)c(CN[C@](C)(CO)C(=O)O)cc2Cl)cccc1-c1cccc(OCCCN2CCC(O)(C(=O)O)CC2)c1C` [Example 1094, (R)-1-(3-((3′-((5-((5-carbamoylpyridin-3-yl)methoxy)-4-(((2-carboxy-1-hydroxypropan-2-yl)amino)methyl)-2-chlorophenoxy)methyl)-2,2′-dimethyl-[1,1′-biphenyl]-3-yl)oxy)propyl)-4-hydroxypiperidine-4-carboxylic Acid], the IC50 is 0.21 to 10 nM. Turning to `CCOC(=O)C1(O)CCN(CCCOc2cccc(-c3cccc(COc4cc(OCc5cncc(C#N)c5)c(CN[C@@H](CO)C(=O)O)cc4Cl)c3C)c2Cl)CC1` [Example 1095, (5-chloro-4-((2′-chloro-3′-(3-(4-(ethoxycarbonyl)-4-hydroxypiperidin-1-yl)propoxy)-2-methyl-[1,1′-biphenyl]-3-yl)methoxy)-2-((5-cyanopyridin-3-yl)methoxy)benzyl)-L-serine], the IC50 is 0.21 to 10 nM. In the case of `Cc1c(COc2cc(OCc3cncc(C#N)c3)c(CN3CCCC[C@H]3C(=O)O)cc2Cl)cccc1-c1cccc(OCCCN2CCC(O)(C(=O)O)CC2)c1Cl` [Example 1097, (S)-1-(4-((3′-(3-(4-carboxy-4-hydroxypiperidin-1-yl)propoxy)-2′-chloro-2-methyl-[1,1′-biphenyl]-3-yl)methoxy)-5-chloro-2-((5-cyanopyridin-3-yl)methoxy)benzyl)piperidine-2-carboxylic Acid], the IC50 was in the range of 0.21 to 10 nM.

For the compound `CCOC(=O)C1(O)CCN(CCCOc2cccc(-c3cccc(COc4cc(OCc5cncc(C#N)c5)c(CN[C@](C)(CO)C(=O)O)cc4Cl)c3C)c2Cl)CC1` [Example 1098, (R)-2-((5-chloro-4-((2′-chloro-3′-(3-(4-(ethoxycarbonyl)-4-hydroxypiperidin-1-yl)propoxy)-2-methyl-[1,1′-biphenyl]-3-yl)methoxy)-2-((5-cyanopyridin-3-yl)methoxy)benzyl)amino)-3-hydroxy-2-methylpropanoic Acid], the IC50 lay within 0.21 to 10 nM.

Consider `Cc1c(COc2cc(OCc3cncc(C#N)c3)c(CN[C@](C)(CO)C(=O)O)cc2Cl)cccc1-c1cccc(OCCCN2CCC(O)(C(=O)O)CC2)c1Cl` [Example 1099, (R)-1-(3-((3′-((4-(((2-carboxy-1-hydroxypropan-2-yl)amino)methyl)-2-chloro-5-((5-cyanopyridin-3-yl)methoxy)phenoxy)methyl)-2-chloro-2′-methyl-[1,1′-biphenyl]-3-yl)oxy)propyl)-4-hydroxypiperidine-4-carboxylic Acid], for which the IC50 was 0.21 to 10 nM. For the compound `CCOC(=O)C1(O)CCN(CCCOc2cccc(-c3cccc(COc4cc(OCc5cncc(C#N)c5)c(CN5CCCC[C@H]5C(=O)O)cc4Cl)c3C)c2Cl)CC1` [Example 1100, (S)-1-(5-chloro-4-((2′-chloro-3′-(3-(4-(ethoxycarbonyl)-4-hydroxypiperidin-1-yl)propoxy)-2-methyl-[1,1′-biphenyl]-3-yl)methoxy)-2-((5-cyanopyridin-3-yl)methoxy)benzyl)piperidine-2-carboxylic Acid], the IC50 lay in the range of 0.21 to 10 nM.

Regarding `CCOC(=O)C1(CO)CCN(CCCOc2cccc(-c3cccc(COc4cc(OCc5cncc(C#N)c5)c(CN5CCCC[C@H]5C(=O)O)cc4Cl)c3C)c2Cl)C1` (stereo partly drawn) [Example 1101, (2S)-1-(5-chloro-4-((2′-chloro-3′-(3-(3-(ethoxycarbonyl)-3-(hydroxymethyl)pyrrolidin-1-yl)propoxy)-2-methyl-[1,1′-biphenyl]-3-yl)methoxy)-2-((5-cyanopyridin-3-yl)methoxy)benzyl)piperidine-2-carboxylic Acid], the IC50 lay within 0.21 to 10 nM. Still for that read-out and setting: as for `CCOC(=O)C1(CO)CCN(CCCOc2cccc(-c3cccc(COc4cc(OCc5cncc(C#N)c5)c(CN[C@](C)(CO)C(=O)O)cc4Cl)c3C)c2Cl)C1` (stereo partly drawn) [Example 1103, (2R)-2-((5-chloro-4-((2′-chloro-3′-(3-(3-(ethoxycarbonyl)-3-(hydroxymethyl)pyrrolidin-1-yl)propoxy)-2-methyl-[1,1′-biphenyl]-3-yl)methoxy)-2-((5-cyanopyridin-3-yl)methoxy)benzyl)amino)-3-hydroxy-2-methylpropanoic Acid], the figure is 0.21 to 10 nM; as for `CCOC(=O)C1(CO)CCN(CCCOc2cccc(-c3cccc(COc4cc(OCc5cncc(C#N)c5)c(CN5CCC(CO)(C(=O)OCC)C5)cc4Cl)c3C)c2Cl)C1` (stereo not shown) [Example 1104, ethyl 1-(3-((2-chloro-3′-((2-chloro-5-((5-cyanopyridin-3-yl)methoxy)-4-((3-(ethoxycarbonyl)-3-(hydroxymethyl)pyrrolidin-1-yl)methyl)phenoxy)methyl)-2′-methyl-[1,1′-biphenyl]-3-yl)oxy)propyl)-3-(hydroxymethyl)pyrrolidine-3-carboxylate], 10 to 100 nM; as for `CC(=O)NC1CCN(CCCOc2cccc(-c3cccc(COc4cc(OCc5cncc(C#N)c5)c(CN5CCCC[C@H]5C(=O)O)cc4Cl)c3C)c2C)CC1` [Example 1105, (S)-1-(4-((3′-(3-(4-acetamidopiperidin-1-yl)propoxy)-2,2′-dimethyl-[1,1′-biphenyl]-3-yl)methoxy)-5-chloro-2-((5-cyanopyridin-3-yl)methoxy)benzyl)piperidine-2-carboxylic Acid], 0.21 to 10 nM.
